For data set [1], the system named is human form of induced nitric oxide synthase. Kind of data set: Screen 3: nitrite accumulation (Griess) in cytokine-induced DLD-1 cells. The class given is cell-based. As to conditions: DLD-1 cells induced with gamma-IFN, TNF-alpha, IL-6, IL-1-beta, 5 hours incubation with compound, read-out: IC50 (inhibition of nitrite accumulation). How it is done: The human colorectal carcinoma cell line, DLD-1 (obtained from the European Collection of Animal Cell Culture—cell line number 90102540) was routinely grown in RPMI 1640 supplemented with 10%(v/v) foetal bovine serum, and 2 mM L-glutanmine, at 37° C. in 5% CO2.
Nitric oxide synthase was induced in cells by addition of medium containing human recombinant gamma-IFN (1000 units/ml), TNF-alpha (200 U/ml), IL-6 (200 U/ml) and IL-1-beta (250 U/ml). After incubation for 18 hours at 37° C., the medium was removed and the cells washed with warm phosphate buffered saline. Cells were incubated for a further 5 hours at 37° C./5% CO2 in RPMI 1640 containing 100 μM L-arginine and 100 μM verapamil-HCl in the presence and absence of test compounds.
Nitrite accumulation was determined by mixing an equal volume of culture media with Griess reagent (10 mg/ml sulphanilamide, 1 mg N-(1-naphthyl)ethylenediamine in 1 ml 2.5% (v/v) phosphoric acid). Inhibition in the presence of compounds was calculated relative to the nitrite levels produced by untreated cells. IC50 values were estimated from a semi-log plot of % inhibition versus concentration of compound.

In another data set the target is T1, Nitric oxide synthase (Mus musculus, UniProt P29477).
T1 construct: endogenous in cells; host or cells: J774A-1 murine macrophage cell line, induced with LPS and IFNg; crude cell lysate
Kind of data set: Screen 1: nitric oxide synthase inhibition, 3H-L-arginine to 3H-L-citrulline conversion, lysate of induced J774A-1 cells. The class given is biochemical, murine. The conditions noted are these: enzyme from LPS/IFNg-induced J774A-1 macrophage lysate; 1 hour at room temperature; read-out: IC50 (concentration of drug substance which gives 50% enzyme inhibition in the assay). As to the method:
The activity of compounds of formula (I), or a pharmaceutically acceptable salt thereof, may be screened for nitric oxide synthase inhibiting activity by a procedure based on that of Förstermann et al., Eur. J. Pharm., 1992, 225, 161–165. Nitric oxide synthase converts ^3H-L-arginine into ^3H-L-citrulline which can be separated by cation exchange chromatography and quantified by liquid scintillation counting.
Enzyme is prepared, after induction, from the cultured murine macrophage cell line J774A-1 (obtained from the laboratories of the Imperial Cancer Research Fund). J774A-1 cells are cultured in Dulbeccos Modified Eagles Medium (DMEM) supplemented with 10% foetal bovine serum, 4 mM L-glutamine and antibiotics (100 units/nl penicillin G, […] streptomycin & […] ainphotericin B). Cells are routinely grown in […] flasks containing 35 ml medium kept at 37° C. and in a humidified atmosphere containing 5% CO2. […]
Labelled L-citrulline is separated from labelled L-arginine using Dowex AG-50W. […] After allowing the samples to dry the L-citrulline is quantified by scintillation counting.
In a typical experiment basal activity is 300 dpm per 75 μl sample which is increased to 1900 dpm in the reagent controls. […] Compounds are tested at a range of concentrations and from the inhibitions is obtained IC50 values are calculated. […]

Molecules are shown by their SMILES. Where a name gives a salt, the structure may show the parent alone.

For the compound `N#Cc1cc(F)c(Cl)cc1O[C@H](CN)c1ccccc1` [Example 1, 2-[[(1S)-2-Amino-1-phenylethyl]oxy]-4-chloro-5-fluorobenzonitrile (E)-butenedioate], in data set [1], the IC50 is less than 100 µM.
Take `N=C(N)NN` [ainlinoguanidine]: the IC50 at Nitric oxide synthase was found to be 10 µM.
With `N#Cc1ccc(Cl)cc1SC(CN)c1cccnc1` (stereo not drawn) [Example 11, 2-[[2-Amino-1-(3-pyridinyl)ethyl]thio]-4-chlorobenzonitrile], the IC50 in data set [1] is less than 100 µM.
On the same count and under the same terms, to `NCC(Sc1cc(Cl)ccc1Cl)c1ccccc1` (stereo not drawn) [Example 3, 2-[(2,5-Dichlorophenyl)thio]-2-phenylethylamine hydrochloride] belongs less than 100 µM; to `N#Cc1cc(F)c(Cl)cc1O[C@H](CN)c1ccon1` [Example 10, 2-[[(1R)-2-Amino-1-(3-isoxazolyl)ethyl]oxy]-4-chloro-5-fluorobenzonitrile ethanedioate], less than 100 µM; to `COc1ccc(C#N)c(S[C@H](CN)c2ccccc2)c1` [Example 8, 2-[[(1S)-2-Amino-1-phenylethyl]thio]-4-methoxybenzonitrile hydrochloride], less than 100 µM.
As for `N#Cc1ccc(C(F)(F)F)nc1S[C@H](CN)c1ccccc1` [Example 7, 2-[[(1S)-2-Amino-1-phenylethyl]thio]-6-(trifluoromethyl)-3-piridinecarbonitrile], the IC50 in data set [1] is less than 100 µM.
On to `Cc1ccc(C#N)c(S[C@H](CN)c2ccccc2)n1` [Example 2, 2-[[(1S)-2-Amino-1-phenylethyl]thio]-6-methyl-3-pyridinecarbonitrile hydrochloride], for which the IC50 in data set [1] was less than 100 µM.
As to `N#Cc1ccc(Cl)cc1S[C@H](CN)c1ccccc1` [Example 4, 2-[[(1S)-2-Amino-1-phenylethyl]thio]-4-chlorobenzonitrile hydrochloride], the IC50 in data set [1] was less than 100 µM.
`CNC[C@@H](Sc1cc(Cl)ccc1C#N)c1ccccc1` [Example 9, 4-Chloro-2-[[(1S)-2-(methylamino)-1-phenylethyl]thio]benzonitrile hydrochloride]: in data set [1], the IC50 was less than 100 µM.
`CC(=N)NCC(Oc1cc(Cl)c(F)cc1C#N)c1ccccc1.Cl` (stereo not drawn) [Example 5, N-[2-(5-Chloro-2-cyano-4-fluorophenoxy)-2-phenylethyl]-ethanimidamide hydrochloride] displayed a melting point of 133 to 135 °C. In addition, in data set [1], the IC50 is less than 100 µM.

Broadly, the melting point is the temperature, or range, at which the solid turns liquid.

The values are drawn from patent US7223794B2, “Arylheteroalkylamine derivatives and their use as inhibitors of nitric oxide synthase” (AstraZeneca AB, priority 2001, dated 2007).
